ChEMBL document CHEMBL1201862, “PubChem BioAssay data set” (2004)
The source made the active and inactive calls.

Columns and labels:
[1] = target: T1, Insulin-degrading enzyme (Homo sapiens, UniProt P14735); experiment: cellular IDE activation of Abeta substrate cleavage – fluorescence polarization, HEK cells, dose response (AID 588439); assay type: functional, cell-based
T1 sequence (P14735 whole entry): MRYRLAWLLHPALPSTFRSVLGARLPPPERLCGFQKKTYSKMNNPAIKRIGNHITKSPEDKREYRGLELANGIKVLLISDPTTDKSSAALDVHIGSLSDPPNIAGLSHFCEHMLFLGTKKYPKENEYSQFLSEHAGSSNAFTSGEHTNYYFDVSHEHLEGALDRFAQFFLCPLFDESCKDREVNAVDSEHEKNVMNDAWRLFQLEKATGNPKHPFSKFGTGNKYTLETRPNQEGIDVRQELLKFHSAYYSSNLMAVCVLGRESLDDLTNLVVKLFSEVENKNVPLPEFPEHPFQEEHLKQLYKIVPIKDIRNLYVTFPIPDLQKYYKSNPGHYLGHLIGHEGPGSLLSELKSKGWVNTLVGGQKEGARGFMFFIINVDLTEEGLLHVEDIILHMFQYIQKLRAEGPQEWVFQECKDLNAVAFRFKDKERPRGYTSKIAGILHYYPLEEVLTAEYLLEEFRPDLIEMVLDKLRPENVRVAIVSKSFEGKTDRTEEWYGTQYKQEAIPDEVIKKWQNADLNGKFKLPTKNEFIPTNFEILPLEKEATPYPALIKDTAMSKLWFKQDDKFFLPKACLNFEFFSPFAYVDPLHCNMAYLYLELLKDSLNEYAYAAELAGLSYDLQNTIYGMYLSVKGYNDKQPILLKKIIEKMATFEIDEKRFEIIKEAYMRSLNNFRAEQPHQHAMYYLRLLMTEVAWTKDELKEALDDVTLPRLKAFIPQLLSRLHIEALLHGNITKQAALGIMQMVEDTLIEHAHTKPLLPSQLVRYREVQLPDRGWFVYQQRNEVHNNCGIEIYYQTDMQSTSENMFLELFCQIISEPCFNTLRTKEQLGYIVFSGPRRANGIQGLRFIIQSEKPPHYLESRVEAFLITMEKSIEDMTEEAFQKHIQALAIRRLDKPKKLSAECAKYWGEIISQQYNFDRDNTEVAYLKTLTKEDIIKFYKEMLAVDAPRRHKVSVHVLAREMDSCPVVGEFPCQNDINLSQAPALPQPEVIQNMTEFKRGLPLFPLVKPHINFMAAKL

[2] = system: HEK293; experiment: membrane integrity loss in HEK cells – cell-based, fluorescence, cytotoxicity control for IDE activator project, dose response (AID 588440); assay type: functional; conditions: Homo sapiens;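 further: cytotoxicity by LDH release measuring loss of membrane integrity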
[3] = system: HEK293; experiment: optical interference in Abeta FP readout, dose response, artefact control for IDE activator project, biochemical, fluorescence polarization (AID 588442); assay type: functional, cell-based; conditions: Homo sapiens
[4] = target: T1, Insulin-degrading enzyme; experiment: recombinant IDE activation, cell-free – biochemical, fluorescence polarization, counter-screen for IDE activator project, dose response (AID 588681)
[5] = Vero cell cytotoxicity, cytotoxicity control for M. tuberculosis inhibitor project, purified and synthesized samples, set 3 (AID 504684); assay type: functional
[6] = THP-1 cell cytotoxicity, dose response, cytotoxicity control, set 3 (AID 504852); assay type: functional; conditions: Mycobacterium tuberculosis
[7] = target: DNA dC->dU-editing enzyme APOBEC-3G (Homo sapiens, UniProt Q9HC16); experiment: inhibition of APOBEC3G ssDNA deamination – biochemical, fluorescence, single-stranded DNA substrate, SAR follow-up (AID 602136); assay type: functional; conditions: read-out: IC50_Mean
[8] = target: DNA dC->dU-editing enzyme APOBEC-3A (Homo sapiens, UniProt P31941); experiment: SAR analysis of small molecule inhibitors of APOBEC3A DNA Deaminase via a fluorescence-based single-stranded DNA deaminase assay.; assay type: functional; conditions: read-out: IC50_Mean
[9] = target: T2, Apoptotic protease-activating factor 1 (Homo sapiens, UniProt O14727); experiment: SAR analysis of small molecule Inhibitors of Apaf-1 in a Fluorescent assay - set 2.; assay type: functional; conditions: read-out: IC50_Mean
T2 sequence (O14727 whole entry): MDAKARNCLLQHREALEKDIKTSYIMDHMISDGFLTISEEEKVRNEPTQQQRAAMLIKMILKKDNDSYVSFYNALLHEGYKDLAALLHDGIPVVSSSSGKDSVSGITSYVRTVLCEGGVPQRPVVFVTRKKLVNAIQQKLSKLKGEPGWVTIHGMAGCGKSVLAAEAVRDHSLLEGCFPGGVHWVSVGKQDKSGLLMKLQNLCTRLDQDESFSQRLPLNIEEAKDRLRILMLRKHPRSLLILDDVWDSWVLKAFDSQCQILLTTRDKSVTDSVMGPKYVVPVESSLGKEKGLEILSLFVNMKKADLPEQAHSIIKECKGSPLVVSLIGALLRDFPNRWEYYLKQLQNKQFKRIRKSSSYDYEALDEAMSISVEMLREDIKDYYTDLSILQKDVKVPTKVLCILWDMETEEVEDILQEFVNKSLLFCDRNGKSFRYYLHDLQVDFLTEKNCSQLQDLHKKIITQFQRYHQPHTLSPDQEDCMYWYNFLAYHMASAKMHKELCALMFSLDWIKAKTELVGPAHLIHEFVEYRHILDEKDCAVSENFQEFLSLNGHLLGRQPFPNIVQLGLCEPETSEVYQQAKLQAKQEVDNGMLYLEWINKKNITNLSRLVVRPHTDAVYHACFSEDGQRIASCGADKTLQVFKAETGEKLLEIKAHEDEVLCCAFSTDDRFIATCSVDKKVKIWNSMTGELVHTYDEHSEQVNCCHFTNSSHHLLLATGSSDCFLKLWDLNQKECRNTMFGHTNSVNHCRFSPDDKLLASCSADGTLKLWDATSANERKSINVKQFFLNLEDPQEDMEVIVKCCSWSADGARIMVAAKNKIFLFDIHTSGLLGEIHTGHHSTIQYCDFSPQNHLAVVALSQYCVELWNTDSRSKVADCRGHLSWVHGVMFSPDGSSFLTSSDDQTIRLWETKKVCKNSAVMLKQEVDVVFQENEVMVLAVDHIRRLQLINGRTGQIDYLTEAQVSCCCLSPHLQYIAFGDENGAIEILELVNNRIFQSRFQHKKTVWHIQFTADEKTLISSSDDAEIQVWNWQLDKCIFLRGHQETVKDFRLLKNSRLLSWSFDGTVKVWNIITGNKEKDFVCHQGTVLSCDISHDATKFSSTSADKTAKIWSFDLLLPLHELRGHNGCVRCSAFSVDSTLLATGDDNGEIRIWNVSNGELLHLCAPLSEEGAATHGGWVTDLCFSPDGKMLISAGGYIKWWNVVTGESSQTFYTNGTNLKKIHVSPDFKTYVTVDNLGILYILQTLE

[10] = SAR analysis of small molecule inhibitors of Apaf-1 using a LZ-Caspase-9/Caspase-3 Fluorescent Selectivity assay - Set 2.; assay type: functional; conditions: read-out: IC50_Mean
[11] = target: Serine/threonine-protein kinase Chk1 (Homo sapiens, UniProt O14757); assay type: functional;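 further: measured as one member of a kinome-wide kinase profiling panel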
[12] = target: Dual specificity mitogen-activated protein kinase kinase 1 (Homo sapiens, UniProt Q02750); experiment: Navigating the Kinome. Panel member name: MAP2K1; assay type: functional
Dual specificity mitogen-activated protein kinase kinase 1, sequence (Q02750 whole entry): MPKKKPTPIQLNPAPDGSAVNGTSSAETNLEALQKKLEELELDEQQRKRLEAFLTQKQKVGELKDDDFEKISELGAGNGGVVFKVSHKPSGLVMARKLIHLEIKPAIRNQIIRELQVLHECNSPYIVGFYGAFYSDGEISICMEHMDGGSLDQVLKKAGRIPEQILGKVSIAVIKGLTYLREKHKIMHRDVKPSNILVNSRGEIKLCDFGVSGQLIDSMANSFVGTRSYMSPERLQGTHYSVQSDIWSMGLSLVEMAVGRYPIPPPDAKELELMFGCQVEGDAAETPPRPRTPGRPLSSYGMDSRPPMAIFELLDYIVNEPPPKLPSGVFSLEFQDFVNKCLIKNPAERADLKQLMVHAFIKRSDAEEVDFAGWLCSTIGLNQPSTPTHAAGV

DNA dC->dU-editing enzyme APOBEC-3G, sequence (Q9HC16 whole entry): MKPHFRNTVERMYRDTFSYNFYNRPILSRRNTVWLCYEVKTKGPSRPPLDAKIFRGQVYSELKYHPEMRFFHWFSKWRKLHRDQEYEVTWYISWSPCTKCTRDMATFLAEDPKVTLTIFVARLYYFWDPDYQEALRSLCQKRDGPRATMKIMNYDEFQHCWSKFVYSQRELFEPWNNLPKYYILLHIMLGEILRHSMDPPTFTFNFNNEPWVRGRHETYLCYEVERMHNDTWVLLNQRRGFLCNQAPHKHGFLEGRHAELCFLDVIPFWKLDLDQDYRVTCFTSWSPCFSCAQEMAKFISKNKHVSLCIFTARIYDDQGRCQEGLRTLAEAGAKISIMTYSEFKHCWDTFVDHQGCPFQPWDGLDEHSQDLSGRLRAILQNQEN
DNA dC->dU-editing enzyme APOBEC-3A, sequence (P31941 whole entry): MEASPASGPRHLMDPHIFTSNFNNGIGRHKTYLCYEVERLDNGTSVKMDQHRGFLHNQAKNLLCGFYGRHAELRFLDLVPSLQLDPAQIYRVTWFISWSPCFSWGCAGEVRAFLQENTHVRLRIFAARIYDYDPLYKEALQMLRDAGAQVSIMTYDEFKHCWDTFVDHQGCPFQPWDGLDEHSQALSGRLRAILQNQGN
Serine/threonine-protein kinase Chk1, sequence (O14757 whole entry): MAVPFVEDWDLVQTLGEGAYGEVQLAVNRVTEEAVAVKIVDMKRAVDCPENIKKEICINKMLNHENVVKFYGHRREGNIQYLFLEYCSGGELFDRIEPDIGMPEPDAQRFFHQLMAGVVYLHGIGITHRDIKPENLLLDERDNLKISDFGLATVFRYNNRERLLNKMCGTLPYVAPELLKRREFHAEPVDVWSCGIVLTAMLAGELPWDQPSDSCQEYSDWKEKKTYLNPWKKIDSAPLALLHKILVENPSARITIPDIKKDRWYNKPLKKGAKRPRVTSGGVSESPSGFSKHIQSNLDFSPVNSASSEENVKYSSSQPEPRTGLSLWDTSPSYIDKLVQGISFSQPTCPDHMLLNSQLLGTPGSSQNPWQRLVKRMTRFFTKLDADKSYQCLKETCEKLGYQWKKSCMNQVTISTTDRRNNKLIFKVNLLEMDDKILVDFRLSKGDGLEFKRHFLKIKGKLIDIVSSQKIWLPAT

O=C(O)c1ccccc1NC(=O)C1CCN(S(=O)(=O)c2cccc3nsnc23)CC1
EC50 [1]: > 18.2 µM (inactive)
IC50 [2]: > 89.2 µM (inactive)
EC50 [3]: 2.44 µM (active)
EC50 [4]: > 54.7 µM (inactive)

COC(=O)c1ccc(CNc2c(N3CCCC3)c(=O)c2=O)cc1
CC50 [5]: > 100 µM (active)
CC50 [6]: > 100 µM (active)

CN1CC2=C(N=C1NCCCO)c1ccccc1CC21CCCCC1
IC50 [7]: > 99 µM (inactive)
IC50 [8]: > 99 µM (inactive)

Cc1cc(C)c2c(c1)N(Cc1ccc(Cl)c(Cl)c1)C(=O)C2=O
IC50 [9]: 42 µM (active)
IC50 [10]: 20.1 µM (active)

CN(C)Cc1ccc2c(c1)NC(=O)C1CCCN21 (configuration not stated)
Ki [11]: 1.58 µM (active)
Ki [12]: 3.16 µM (active)
